PubChem BioAssay AID248 (DTP/NCI, 2004)
“And” between values parts separate entries of the source, which are not always exact repeats. Equal entries are not always repeated. Inconclusive results and toxic doses are left out. Cut-off read from the data, not from the text of the source: active = T/C of 150% or more; inactive = T/C below 125%.

System: L1210 leukemia ip in BDF1 mice, survival T/C
Assay: NCI In Vivo Anticancer Drug Screen. Data for tumor model L1210 Leukemia (intraperitoneal) in B6D2F1 (BDF1) mice
Details: endpoint: mean survival time, higher = longer survival
Summary of the method: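 Transplanted-tumor mice were given test agent; controls received vehicle only. Survival readings from the two groups were divided (treated over control).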

[1] = dose: 100.0 mg/kg/injection, schedule: Q01DX001 (ip), vehicle: Klucel (hydroxypropylcellulose) (HPC)
[2] = dose: 200.0 mg/kg/injection, schedule: Q01DX001 (ip), vehicle: Klucel (hydroxypropylcellulose) (HPC)
[3] = dose: 400.0 mg/kg/injection, schedule: Q01DX001 (ip), vehicle: Klucel (hydroxypropylcellulose) (HPC)
[4] = dose: 100.0 mg/kg/injection, schedule: Q04DX003 (ip), vehicle: Klucel (hydroxypropylcellulose) (HPC)
[5] = dose: 200.0 mg/kg/injection, schedule: Q04DX003 (ip), vehicle: Klucel (hydroxypropylcellulose) (HPC)
[6] = dose: 400.0 mg/kg/injection, schedule: Q04DX003 (ip), vehicle: Klucel (hydroxypropylcellulose) (HPC)
[7] = dose: 100.0 mg/kg/injection, schedule: Q04DX002 (ip), vehicle: Klucel (hydroxypropylcellulose) (HPC)
[8] = dose: 200.0 mg/kg/injection, schedule: Q04DX002 (ip), vehicle: Klucel (hydroxypropylcellulose) (HPC)
[9] = dose: 400.0 mg/kg/injection, schedule: Q04DX002 (ip), vehicle: Klucel (hydroxypropylcellulose) (HPC)
[10] = dose: 100.0 mg/kg/injection, schedule: Q04DX003 (ip), vehicle: saline with Tween-80
[11] = dose: 400.0 mg/kg/injection, schedule: Q04DX003 (ip), vehicle: saline with Tween-80
[12] = dose: 100.0 mg/kg/injection, schedule: Q01DX001 (ip), vehicle: saline
[13] = dose: 200.0 mg/kg/injection, schedule: Q01DX001 (ip), vehicle: saline
[14] = dose: 400.0 mg/kg/injection, schedule: Q01DX001 (ip), vehicle: saline
[15] = dose: 100.0 mg/kg/injection, schedule: Q01DX009 (ip), vehicle: Klucel (hydroxypropylcellulose) (HPC)
[16] = dose: 200.0 mg/kg/injection, schedule: Q01DX009 (ip), vehicle: Klucel (hydroxypropylcellulose) (HPC)
[17] = dose: 400.0 mg/kg/injection, schedule: Q01DX009 (ip), vehicle: Klucel (hydroxypropylcellulose) (HPC)
[18] = dose: 50.0 mg/kg/injection, schedule: Q01DX001 (ip), vehicle: carboxymethylcellulose (CMC)
[19] = dose: 100.0 mg/kg/injection, schedule: Q01DX001 (ip), vehicle: carboxymethylcellulose (CMC)
[20] = dose: 200.0 mg/kg/injection, schedule: Q01DX001 (ip), vehicle: carboxymethylcellulose (CMC)
[21] = dose: 100.0 mg/kg/injection, schedule: Q04DX002 (ip), vehicle: gum acacia

Measured: T/C

C=C1C(=O)OC2/C=C(/C)C(OC(C)=O)CC(O)/C(C)=C\C(OC(=O)/C(C)=C\C)C12 (configuration not stated)
inactive: dose: 40.0 mg/kg/injection, schedule: Q01DX009 (ip), vehicle: carboxymethylcellulose (CMC) 101 % of control | dose: 60.0 mg/kg/injection, schedule: Q01DX009 (ip), vehicle: carboxymethylcellulose (CMC) 104 % of control | dose: 80.0 mg/kg/injection, schedule: Q01DX009 (ip), vehicle: carboxymethylcellulose (CMC) 104 % of control | dose: 100.0 mg/kg/injection, schedule: Q01DX009 (ip), vehicle: carboxymethylcellulose (CMC) 98 % of control

C/C(=N\NC(=S)Nc1cc(Cl)ccc1Cl)c1cc([N+](=O)[O-])c(O)cc1O
inactive: [1] 104 % of control | [2] 101 % of control | [3] 93 % of control

COc1ccccc1-n1c(O)c(N=Nc2ccccc2C)c(=O)n(-c2ccccc2)c1=S
inactive: [1] 110 % of control | [2] 96 % of control | [3] 96 % of control

Clc1ccc(C(c2ccc(Cl)cc2)N2CCNCC2)cc1
inactive: dose: 25.0 mg/kg/injection, schedule: Q01DX009 (ip), vehicle: saline with Tween-80 98 % of control

Nc1nc2nnc(-c3ccccc3)c(-c3ccccc3)n2n1
inactive: [1] 93 % of control | [4] 96 % of control | [2] 93 % of control | [5] 101 % of control | [3] 92 % of control | [6] 91 % of control

CN1C(=O)CN(CCN2CC(=O)N(C)C2=S)C1=S
inactive: [7] 105 % of control | [8] 97 % of control | [9] 90 % of control

[O-][n+]1c2ccccc2c(Oc2ccccc2)c2ccc3ccccc3c21
inactive: [10] 95 % of control | [11] 92 % of control

COC1CN(C(C)(C)C)C1
inactive: dose: 100.0 mg/kg/injection, schedule: Q04DX003 (ip), vehicle: saline 103 % of control

CC(C)(C)c1cc([N+](=O)[O-])cc([N+](=O)[O-])c1O
inactive: dose: 1.56 mg/kg/injection, schedule: Q01DX009 (ip), vehicle: saline with Tween-80 93 % of control | dose: 1.56 mg/kg/injection, schedule: Q04DX003 (ip), vehicle: saline with Tween-80 100 % of control | dose: 3.13 mg/kg/injection, schedule: Q01DX009 (ip), vehicle: saline with Tween-80 93 % of control | dose: 3.13 mg/kg/injection, schedule: Q04DX003 (ip), vehicle: saline with Tween-80 96 % of control | dose: 6.25 mg/kg/injection, schedule: Q01DX009 (ip), vehicle: saline with Tween-80 96 % of control | dose: 6.25 mg/kg/injection, schedule: Q04DX003 (ip), vehicle: saline with Tween-80 107 % of control

CCC[CH2][Sn]1([CH2]CCC)[CH2]CC(=O)[O]1
inactive: dose: 100.0 mg/kg/injection, schedule: Q04DX002 (ip), vehicle: saline with Tween-80 103 % of control | dose: 200.0 mg/kg/injection, schedule: Q04DX002 (ip), vehicle: saline with Tween-80 95 % of control | dose: 400.0 mg/kg/injection, schedule: Q04DX002 (ip), vehicle: saline with Tween-80 92 % of control

O=C(Nc1ccc(Cl)cc1)c1cc([N+](=O)[O-])ccc1O
inactive: dose: 30.5 mg/kg/injection, schedule: Q02DX010 (ip), vehicle: carboxymethylcellulose (CMC) 95 % of control | dose: 61.0 mg/kg/injection, schedule: Q02DX010 (ip), vehicle: carboxymethylcellulose (CMC) 101 % of control | dose: 122.0 mg/kg/injection, schedule: Q02DX010 (ip), vehicle: carboxymethylcellulose (CMC) 99 % of control | dose: 244.0 mg/kg/injection, schedule: Q02DX010 (ip), vehicle: carboxymethylcellulose (CMC) 94 % of control

CCCC(C)CC(=O)O (configuration not stated)
inactive: [12] 102 % of control | [13] 102 % of control | [14] 98 % of control

OC(CBr)c1ccc(Cl)c(Cl)c1 (configuration not stated)
inactive: [15] 103 % of control | [4] 97 % of control | [16] 105 % of control | [5] 103 % of control | [17] 97 % of control | [6] 103 % of control

CN(C)Cc1ccc(C(C)(C)C)cc1
inactive: dose: 25.0 mg/kg/injection, schedule: Q01DX009 (ip), vehicle: water 97 % of control | dose: 50.0 mg/kg/injection, schedule: Q01DX009 (ip), vehicle: water 105 % of control | dose: 100.0 mg/kg/injection, schedule: Q01DX009 (ip), vehicle: water 95 % of control

O/N=C/c1cccn1-c1cccc2c(-n3cccc3/C=N/O)cccc12
inactive: dose: 25.0 mg/kg/injection, schedule: Q04DX002 (ip), vehicle: Klucel (hydroxypropylcellulose) (HPC) 101 % of control | dose: 50.0 mg/kg/injection, schedule: Q04DX002 (ip), vehicle: Klucel (hydroxypropylcellulose) (HPC) 93 % of control | [7] 97 % of control

CN(C)P1N(C)CCN1C
inactive: [12] 95 % of control | [13] 106 % of control | [14] 87 % of control

CCCCCCCCCCC/C=N\[N+](C)(C)C
inactive: dose: 12.5 mg/kg/injection, schedule: Q01DX009 (ip), vehicle: Klucel (hydroxypropylcellulose) (HPC) 108 % of control | dose: 25.0 mg/kg/injection, schedule: Q01DX009 (ip), vehicle: Klucel (hydroxypropylcellulose) (HPC) 95 % of control

CCCCCCCCOc1ccc(C(=O)c2ccccc2)c(O)c1
inactive: [15] 100 % of control | [4] 94 % of control | [16] 101 % of control | [5] 96 % of control | [17] 94 % of control | [6] 94 % of control

CCOC(=O)C(CCCCC(C(=O)OCC)C(=O)OCC)C(=O)OCC
inactive: [12] 103 % of control | [13] 109 % of control | [14] 105 % of control

CC(=O)c1ccc2oc3ccccc3c2c1
inactive: [7] 97 % of control | [8] 100 % of control | [9] 93 % of control

Cn1c(=O)c2ncn(CC3CCCCC3)c2n(C)c1=O
inactive: [18] 87 % of control | [19] 90 % of control | [20] 86 % of control

COC(=O)CCC(=O)N1CCOCC1
inactive: [10] 88 % of control | dose: 200.0 mg/kg/injection, schedule: Q04DX003 (ip), vehicle: saline with Tween-80 90 % of control | [11] 88 % of control

CCOP(N)(=O)SCC (configuration not stated)
inactive: dose: 5.0 mg/kg/injection, schedule: Q01DX001 (ip), vehicle: saline 110 % of control

[Cl][Sb]([c]1ccccc1)([c]1ccccc1)([c]1ccccc1)[c]1ccccc1
inactive: dose: 2.4 mg/kg/injection, schedule: Q01DX009 (ip), vehicle: saline 101 % of control | dose: 4.7 mg/kg/injection, schedule: Q01DX009 (ip), vehicle: saline 94 % of control | dose: 9.4 mg/kg/injection, schedule: Q01DX009 (ip), vehicle: saline 91 % of control

NC(=O)Nc1cccc(Cl)c1
inactive: [21] 106 % of control | dose: 200.0 mg/kg/injection, schedule: Q04DX002 (ip), vehicle: gum acacia 98 % of control | dose: 400.0 mg/kg/injection, schedule: Q04DX002 (ip), vehicle: gum acacia 106 % of control

COc1cccc(NC(=S)C(C#N)C(=O)Nc2cccc(C(F)(F)F)c2)c1 (configuration not stated)
inactive: dose: 25.0 mg/kg/injection, schedule: Q04DX002 (ip), vehicle: gum acacia 106 % of control | dose: 50.0 mg/kg/injection, schedule: Q04DX002 (ip), vehicle: gum acacia 109 % of control | [21] 98 % of control and 88 % of control

CCCCNC(=S)NC(=O)c1ccc(Br)cc1
inactive: [7] 97 % of control | [8] 97 % of control | [9] 90 % of control

COc1ccc2c(c1)CCCCC2=O
inactive: [18] 105 % of control | [19] 102 % of control | [20] 100 % of control | dose: 400.0 mg/kg/injection, schedule: Q01DX001 (ip), vehicle: carboxymethylcellulose (CMC) 102 % of control

CC1(C)CCC(=O)C=C1c1c[nH]c2ccccc12
inactive: dose: 100.0 mg/kg/injection, schedule: Q01DX001 (ip), vehicle: other 88 % of control | dose: 200.0 mg/kg/injection, schedule: Q01DX001 (ip), vehicle: other 88 % of control | dose: 400.0 mg/kg/injection, schedule: Q01DX001 (ip), vehicle: other 97 % of control

Nc1ccc(C(=O)N/N=C/c2ccc(N(CCBr)CCBr)cc2)cc1
inactive: dose: 12.5 mg/kg/injection, schedule: Q01DX Z (ip), vehicle: carboxymethylcellulose (CMC) 124 % of control | [12] 98 % of control | [13] 108 % of control
